Reference: patent US7659394B2 (Pfizer Inc, priority 2004, dated 2010)

Key:
[1] = target: T1, human norepinephrine transporter (Homo sapiens, UniProt P23975); experiment: hNET receptor binding ([125I]-RTI-55 radioligand binding); settings: membranes of HEK-293 cells transfected with human norepinephrine transporter, IC50 converted to Ki by Cheng-Prusoff, read-out: hNET (Ki)
T1 construct: host or cells: HEK-293
How it was run: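 Membranes from HEK-293 cells transfected with human NET. Nonspecific binding defined with 10 μM desipramine, duplicates. IC50 by nonlinear regression, converted to Ki with Cheng-Prusoff.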

[2] = target: T2, human seritonin transporter (Homo sapiens, UniProt P31645); experiment: hSERT receptor binding ([125I]-RTI-55 radioligand binding); settings: membranes of HEK-293 cells transfected with human seritonin transporter, IC50 converted to Ki by Cheng-Prusoff, read-out: SERT (Ki)
T2 construct: host or cells: HEK-293
T2 sequence (P31645 whole entry): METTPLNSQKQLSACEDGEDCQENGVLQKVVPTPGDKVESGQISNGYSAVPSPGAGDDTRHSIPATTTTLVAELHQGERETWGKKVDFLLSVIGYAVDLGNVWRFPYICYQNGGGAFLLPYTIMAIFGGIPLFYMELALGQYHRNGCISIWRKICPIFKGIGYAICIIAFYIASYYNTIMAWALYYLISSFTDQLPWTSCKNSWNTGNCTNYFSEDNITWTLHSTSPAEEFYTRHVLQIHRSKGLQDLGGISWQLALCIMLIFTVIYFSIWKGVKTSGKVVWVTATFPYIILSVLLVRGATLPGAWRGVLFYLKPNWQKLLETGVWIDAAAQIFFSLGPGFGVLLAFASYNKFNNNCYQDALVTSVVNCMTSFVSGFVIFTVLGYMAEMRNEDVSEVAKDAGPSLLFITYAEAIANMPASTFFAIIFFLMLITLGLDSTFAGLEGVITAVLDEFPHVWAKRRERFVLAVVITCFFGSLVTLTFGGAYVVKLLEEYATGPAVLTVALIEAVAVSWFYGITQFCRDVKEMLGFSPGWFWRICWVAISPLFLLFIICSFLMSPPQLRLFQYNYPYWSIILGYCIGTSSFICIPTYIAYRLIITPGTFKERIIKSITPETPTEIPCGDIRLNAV

T1 sequence (P23975 whole entry): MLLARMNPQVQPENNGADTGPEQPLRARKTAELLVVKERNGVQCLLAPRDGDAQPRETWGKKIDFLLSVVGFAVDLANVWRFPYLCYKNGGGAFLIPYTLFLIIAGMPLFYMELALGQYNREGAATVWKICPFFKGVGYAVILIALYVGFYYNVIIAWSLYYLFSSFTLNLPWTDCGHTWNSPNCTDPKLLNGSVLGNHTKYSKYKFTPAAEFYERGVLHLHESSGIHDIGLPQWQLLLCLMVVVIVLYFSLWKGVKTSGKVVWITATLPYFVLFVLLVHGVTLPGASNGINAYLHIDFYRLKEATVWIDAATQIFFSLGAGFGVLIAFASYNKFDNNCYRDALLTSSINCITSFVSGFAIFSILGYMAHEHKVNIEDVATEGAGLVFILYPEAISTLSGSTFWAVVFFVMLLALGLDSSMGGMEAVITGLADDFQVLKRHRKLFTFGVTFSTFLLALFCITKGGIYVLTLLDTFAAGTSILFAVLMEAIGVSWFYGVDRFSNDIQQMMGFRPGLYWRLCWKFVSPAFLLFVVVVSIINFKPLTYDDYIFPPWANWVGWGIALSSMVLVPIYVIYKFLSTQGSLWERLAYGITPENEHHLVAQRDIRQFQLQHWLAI

COc1cccc([C@H](Oc2ccccc2OC(F)(F)F)[C@@H]2CNCCO2)n1 [Example 109, (2S)-2-{(S)-(6-methoxypyridin-2-yl)[2-(trifluoromethoxy)phenoxy]methyl}morpholine]
Ki [1]: 16 nM | Ki [2]: 364 nM

c1ccc([C@H](Oc2cccc3c2CCC3)[C@@H]2CNCCO2)nc1 [Example 110, (2S)-2-[(S)-(2,3-dihydro-1H-inden-4-yloxy)(pyridin-2-yl)methyl]morpholine]
Ki [1]: 8.57 nM | Ki [2]: 356 nM

Fc1ccc(C(Oc2c(F)cccc2F)[C@H]2CNCCO2)cc1 (stereo partly drawn) [Example 111, (2R)-2-[(2,6-difluorophenoxy)(4-fluorophenyl)methyl]morpholine]
Ki [1]: 105 nM | Ki [2]: 237 nM

Brc1ccccc1OC(c1ccccc1)[C@H]1CNCCO1 (stereo partly drawn) [Example 112, (2R)-2-[(2-bromophenoxy)(phenyl)methyl]morpholine]
Ki [1]: 17 nM | Ki [2]: 105 nM

Fc1cccc(Cl)c1O[C@@H](c1ccccc1)[C@@H]1CNCCO1 [Example 113, (2S)-2-[(S)-(2-chloro-6-fluorophenoxy)(phenyl)methyl]morpholine]
Ki [1]: 15 nM | Ki [2]: 71 nM

c1ccc(C(Oc2ccccc2C2CC2)[C@H]2CNCCO2)cc1 (stereo partly drawn) [Example 114, (2R)-2-[(2-cyclopropylphenoxy)(phenyl)methyl]morpholine]
Ki [1]: 35 nM | Ki [2]: 75 nM

Fc1ccc(Oc2ncccc2O[C@@H](c2ccccc2)[C@@H]2CNCCO2)cc1 [Example 116, (2S)-2-[(S)-{[2-(4-fluorophenoxy)pyridin-3-yl]oxy}(phenyl)methyl]morpholine]
Ki [1]: 63 nM | Ki [2]: 1330 nM

CCOc1ccccc1OC(C1CC1)[C@@H]1CNCCO1 (stereo partly drawn) [Example 118, (2S)-2-[cyclopropyl(2-ethoxyphenoxy)methyl]morpholine]
Ki [1]: 1140 nM | Ki [2]: ≥ 10000 nM

Fc1ccc(O[C@@H](c2ccccc2)[C@@H]2CNCCO2)c(C2CC2)c1 [Example 119, (2S)-2-[(S)-(2-cyclopropyl-4-fluorophenoxy)(phenyl)methyl]morpholine]
Ki [1]: 23 nM | Ki [2]: 66 nM

Fc1cc(F)c(O[C@@H](c2ccccc2)[C@@H]2CNCCO2)c(C2CC2)c1 [Example 122, (2S)-2-[(S)-(2-cyclopropyl-4,6-difluorophenoxy)(phenyl)methyl]morpholine]
Ki [1]: 11 nM | Ki [2]: 44 nM

CCc1ncccc1O[C@@H](c1ccccc1)[C@@H]1CNCCO1 [Example 124, (2S)-2-[(S)-[(2-ethylpyridin-3-yl)oxy](phenyl)methyl]morpholine]
Ki [1]: 30 nM | Ki [2]: 346 nM

N#Cc1ccccc1O[C@@H](c1ccccn1)[C@@H]1CNCCO1 [Example 125, 2-[(S)-(2S)-morpholin-2-yl(pyridin-2-yl)methoxy]benzonitrile]
Ki [1]: 11 nM | Ki [2]: ≥ 10000 nM

CC(C)Oc1ccccc1O[C@@H](c1ccccn1)[C@@H]1CNCCO1 [Example 126, (2S)-2-[(S)-(2-isopropoxyphenoxy)(pyridin-2-yl)methyl]morpholine]
Ki [1]: 32 nM | Ki [2]: ≥ 10000 nM

CCCc1ccccc1O[C@@H](c1ccccn1)[C@@H]1CNCCO1 [Example 127, (2S)-2-[(S)-(2-propylphenoxy)(pyridin-2-yl)methyl]morpholine]
Ki [1]: 7 nM | Ki [2]: 6280 nM

c1ccc(Cc2ccccc2O[C@@H](c2ccccn2)[C@@H]2CNCCO2)cc1 [Example 128, (2S)-2-[(S)-(2-benzylphenoxy)(pyridin-2-yl)methyl]morpholine]
Ki [1]: 11 nM | Ki [2]: 3320 nM

FC(F)(F)Oc1ccccc1O[C@@H](c1ccccn1)[C@@H]1CNCCO1 [Example 129, (2S)-2-{(S)-pyridin-2-yl[2-(trifluoromethoxy)phenoxy]methyl}morpholine]
Ki [1]: 8 nM | Ki [2]: 4470 nM

Cc1ccc(C(C)C)c(O[C@@H](c2ccccn2)[C@@H]2CNCCO2)c1 [Example 130, (2S)-2-[(S)-(2-isopropyl-5-methylphenoxy)(pyridin-2-yl)methyl]morpholine]
Ki [1]: 457 nM | Ki [2]: 7060 nM

Cc1ncccc1O[C@@H](c1ccccc1)[C@@H]1CNCCO1 [Example 131, (2S)-2-[(S)-[(2-methylpyridin-3-yl)oxy](phenyl)methyl]morpholine]
Ki [1]: 388 nM | Ki [2]: 99 nM

c1ccc([C@H](Oc2ccccc2C2CCCC2)[C@@H]2CNCCO2)nc1 [Example 132, (2S)-2-[(S)-(2-cyclopentylphenoxy)(pyridin-2-yl)methyl]morpholine]
Ki [1]: 18 nM | Ki [2]: 6120 nM

FC(F)(F)c1ccccc1O[C@@H](c1ccccn1)[C@@H]1CNCCO1 [Example 133, (2S)-2-{(S)-pyridin-2-yl[2-(trifluoromethyl)phenoxy]methyl}morpholine]
Ki [1]: 1460 nM | Ki [2]: 9060 nM

CCCc1ncccc1O[C@@H](c1ccccc1)[C@@H]1CNCCO1 [Example 135, (2S)-2-{(S)-phenyl[(2-propylpyridin-3-yl)oxy]methyl}morpholine]
Ki [1]: 32 nM | Ki [2]: 4480 nM

CCOc1ncccc1O[C@@H](c1ccccc1)[C@@H]1CNCCO1 [Example 137, (2S)-2-[(S)-[(2-ethoxypyridin-3-yl)oxy](phenyl)methyl]morpholine]
Ki [1]: 9 nM | Ki [2]: 1810 nM

CCOc1ccccc1O[C@@H](c1ncccc1C)[C@@H]1CNCCO1 [Example 138, (2S)-2-[(S)-(2-ethoxyphenoxy)(3-methylpyridin-2-yl)methyl]morpholine]
Ki [1]: 1610 nM | Ki [2]: 3820 nM

Cc1cccnc1[C@H](Oc1ccccc1OC(F)(F)F)[C@@H]1CNCCO1 [Example 139, (2S)-2-{(S)-(3-methylpyridin-2-yl)[2-(trifluoromethoxy)phenoxy]methyl}morpholine]
Ki [1]: 1190 nM | Ki [2]: 1140 nM

COc1cccc([C@H](Oc2ccccc2OC(C)C)[C@@H]2CNCCO2)n1 [Example 140, (2S)-2-[(S)-(2-isopropoxyphenoxy)(6-methoxypyridin-2-yl)methyl]morpholine]
Ki [1]: 71 nM | Ki [2]: 763 nM

CCc1ccnc([C@H](Oc2c(F)cccc2OC)[C@@H]2CNCCO2)c1 [Example 141, (2S)-2-[(S)-(4-ethylpyridin-2-yl) (2-fluoro-6-methoxyphenoxy)methyl]morpholine]
Ki [1]: 40 nM | Ki [2]: 2740 nM

CCOc1ccccc1O[C@@H](c1cc(CC)ccn1)[C@@H]1CNCCO1 [Example 142, (2S)-2-[(S)-(2-ethoxyphenoxy)(4-ethylpyridin-2-yl)methyl]morpholine]
Ki [1]: 49 nM | Ki [2]: 4540 nM

CCOc1ncccc1O[C@@H](C)[C@@H]1CNCCO1 [Example 144, (2S)-2-{(1S)-1-[(2-ethoxypyridin-3-yl)oxy]ethyl}morpholine]
Ki [1]: 304 nM | Ki [2]: 7220 nM

FCCCc1ccccc1O[C@@H](c1ccccc1)[C@@H]1CNCCO1 [Example 145, (2S)-2-[(S)-[2-(3-fluoropropyl)phenoxy](phenyl)methyl]morpholine]
Ki [1]: 45 nM | Ki [2]: 4140 nM

Fc1cccc(F)c1O[C@H](C1=CCCC1)[C@@H]1CNCCO1 [Example 147, (2S)-2-[(R)-cyclopent-1-en-1-yl(2,6-difluorophenoxy)methyl]morpholine]
Ki [1]: 2570 nM | Ki [2]: 2530 nM

COc1cccc(OC)c1OC(c1ccccc1)[C@@H]1CNCCO1 (stereo partly drawn) [Example 148, (2S)-2-[(2,6-dimethoxyphenoxy)(phenyl)methyl]morpholine]
Ki [1]: 69 nM | Ki [2]: ≥ 10000 nM
